IC50 data for seven molecules are collected here from paper PMC6837341, “Evolutionarily conserved susceptibility of the mitochondrial respiratory chain to SDHI pesticides and its consequence on the impact of SDHIs on human cultured cells” (PLoS ONE, 2019).

Common to all, as to assay type: biochemical
Test [1] concerns the target T1, quinol cytochrome c reductase (CIII) (Homo sapiens, UniProt P00156).
T1 construct: the pellets were permeabilized by two freeze-thaw cycles before enzyme assays; endogenous in cells; host or cells: HEK293, freeze-thawed cell pellets
Kind of test: Antimycin-sensitive quinol cytochrome c reductase (QCCR) activity, freeze-thawed HEK cells. How it is done:
(§1) The cells were grown in T75 flasks using 10 ml Dulbecco’s modified Eagle's minimal essential medium (DMEM) either containing 1 or 4.5 g/l glucose, 4 mM glutamine (glutamax; Gibco Thermo Fisher Scientific, MA), 2 mM pyruvate and 200 μM uridine (permissive medium, thereafter referred as GlucoMax) or lacking glucose, pyruvate and uridine but containing 4 mM glutamine (nonpermissive medium, thereafter referred as MitoMax; S1 Table). All media were supplemented with 10% fetal calf serum and 100 U/mL each penicillin and streptomycin. HEK293 human embryonic kidney cells were cultured in DMEM containing 4.5 g/L glucose, 4 mM glutamine, 10% fetal calf serum, 200 μM uridine, 2 mM pyruvate, and 100 U/mL each penicillin and streptomycin [9]. Cell pellets (1,500 g for 5 min) were kept frozen (-80°C), and for biochemical studies, the pellets were permeabilized by two freeze-thaw cycles before enzyme assays.
(§2) RC enzyme activities were spectrophotometrically measured using a pseudo-double-wavelength spectrophotometer (Cary 60, Agilent). Malonate-sensitive succinate quinone dichlorophenolindophenol (DCPIP) reductase (SQDR), as an indicator of the activity of the isolated SDH enzyme (isolated CII), and glycerol-3-phosphate quinone DCPIP reductase (GQDR), as a measure of the activity of the isolated glycerol-3-phosphate dehydrogenase (G3PDH), were assayed as previously described. To study the effect of SDHIs on the RC, we had to take into consideration the fact that these inhibitors act through binding to quinone-binding sites in the RC. Accordingly, we observed that the extent of the inhibitory effects of these substances varies with the addition of exogenous quinones (Fig 1). […] With this aim, we measured the malonate-sensitive succinate cytochrome c reductase (SDH+CIII), glycerol-3-phosphate cytochrome c reductase (G3PDH+CIII) and antimycin-sensitive quinol cytochrome c reductase (CIII) as previously described.
(§3) The effects of eight different SDHIs (up to 500 μM; S2 Fig) were determined on four different biological materials. Because IC50 are known to be affected by the actual absolute activity of the tested enzyme, these IC50 were quantified using similar levels of SDH enzyme activity during the assay. IC50 values were determined using the AAT Bioquest IC50 calculator tool (https://www.aatbio.com/tools/ic50-calculator).

Test [2] concerns the target T2, quinol cytochrome c reductase (CIII) (Apis mellifera, UniProt P34845).
T2 sequence (P34845 1-383): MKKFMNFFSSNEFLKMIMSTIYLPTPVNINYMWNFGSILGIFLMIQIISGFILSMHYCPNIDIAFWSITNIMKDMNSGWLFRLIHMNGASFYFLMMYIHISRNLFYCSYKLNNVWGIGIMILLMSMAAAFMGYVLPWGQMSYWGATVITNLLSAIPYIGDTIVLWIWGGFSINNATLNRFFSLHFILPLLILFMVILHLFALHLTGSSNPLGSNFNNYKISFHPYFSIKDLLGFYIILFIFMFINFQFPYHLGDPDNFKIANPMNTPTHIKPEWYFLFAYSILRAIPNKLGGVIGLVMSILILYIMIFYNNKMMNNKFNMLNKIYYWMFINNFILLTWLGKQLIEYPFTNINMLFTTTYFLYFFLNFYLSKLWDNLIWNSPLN
In words: QCCR activity, honeybee crude mitochondria. As to the method:
A. mellifera individuals (n = 5) were a kind gift from Jacques Kemp (beekeeper; Saint-Rémy-lès-Chevreuse, Yvelines, France). Whole bodies of individuals frozen in dry ice, except heads, were homogenized using a 1 ml glass-glass Potter-Elvehjem homogenizer in an ice-cold medium consisting of 20 mM Tris (pH 7.2), 0.25 M sucrose, 40 mM KCl, 2 mM EGTA, and 1 mg/ml BSA. The homogenate was centrifuged at 1,500 g for 5 min. The mitochondria contained in the supernatant were spun down at 10,000 g for 10 min. The pellet of crude mitochondria was distributed as 20-μl aliquots and kept frozen at -80°C.
as §2, with “described.” for “described. To study the effect of SDHIs on the RC, we had to take into consideration the fact that these inhibitors act through binding to quinone-binding sites in the RC. Accordingly, we observed that the extent of the inhibitory effects of these substances varies with the addition of exogenous quinones (Fig 1).”
as §3

The target of test [3] is succinate cytochrome c reductase (SDH+CIII) (Homo sapiens, UniProt O14521+P21912+Q99643). Kind of test: Malonate-sensitive succinate cytochrome c reductase (SCCR) activity, freeze-thawed HEK cells. On the set-up: the pellets were permeabilized by two freeze-thaw cycles before enzyme assays; endogenous in cells; host or cells: HEK293, freeze-thawed cell pellets. The conditions noted are these: no exogenous quinone. As to the method:
as §1, §2, §3

Where [4] appears, read: Homo sapiens, freeze-thawed HEK cells, CIII values only indicative (reduced quinone added), read-out: IC50 QCCR.
The mark [5] stands for this setting: CIII values only indicative, read-out: IC50 QCCR.
Setting [6] is: read-out: IC50 QCCR, CIII values only indicative.

Where two headings read alike, the source gives them in different places.

Chain of succinate cytochrome c reductase (SDH+CIII) (P21912 29-280): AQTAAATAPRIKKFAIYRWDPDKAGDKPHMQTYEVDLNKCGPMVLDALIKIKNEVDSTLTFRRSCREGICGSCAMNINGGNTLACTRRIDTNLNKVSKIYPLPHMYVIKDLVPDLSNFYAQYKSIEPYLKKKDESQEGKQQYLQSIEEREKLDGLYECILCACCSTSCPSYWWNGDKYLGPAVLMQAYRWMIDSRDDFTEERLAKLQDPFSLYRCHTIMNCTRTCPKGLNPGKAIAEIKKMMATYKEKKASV
Chain of succinate cytochrome c reductase (SDH+CIII) (Q99643 30-169): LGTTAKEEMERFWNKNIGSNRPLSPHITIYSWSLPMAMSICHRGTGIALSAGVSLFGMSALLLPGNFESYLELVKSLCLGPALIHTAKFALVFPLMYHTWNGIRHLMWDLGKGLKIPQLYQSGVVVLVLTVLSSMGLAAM
Chain of succinate cytochrome c reductase (SDH+CIII) (O14521 57-159): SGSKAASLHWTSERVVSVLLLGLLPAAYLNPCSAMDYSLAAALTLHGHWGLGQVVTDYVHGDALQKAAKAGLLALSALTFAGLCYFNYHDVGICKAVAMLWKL
Chain of succinate cytochrome c reductase (SDH+CIII) (P31040 43-664 partner): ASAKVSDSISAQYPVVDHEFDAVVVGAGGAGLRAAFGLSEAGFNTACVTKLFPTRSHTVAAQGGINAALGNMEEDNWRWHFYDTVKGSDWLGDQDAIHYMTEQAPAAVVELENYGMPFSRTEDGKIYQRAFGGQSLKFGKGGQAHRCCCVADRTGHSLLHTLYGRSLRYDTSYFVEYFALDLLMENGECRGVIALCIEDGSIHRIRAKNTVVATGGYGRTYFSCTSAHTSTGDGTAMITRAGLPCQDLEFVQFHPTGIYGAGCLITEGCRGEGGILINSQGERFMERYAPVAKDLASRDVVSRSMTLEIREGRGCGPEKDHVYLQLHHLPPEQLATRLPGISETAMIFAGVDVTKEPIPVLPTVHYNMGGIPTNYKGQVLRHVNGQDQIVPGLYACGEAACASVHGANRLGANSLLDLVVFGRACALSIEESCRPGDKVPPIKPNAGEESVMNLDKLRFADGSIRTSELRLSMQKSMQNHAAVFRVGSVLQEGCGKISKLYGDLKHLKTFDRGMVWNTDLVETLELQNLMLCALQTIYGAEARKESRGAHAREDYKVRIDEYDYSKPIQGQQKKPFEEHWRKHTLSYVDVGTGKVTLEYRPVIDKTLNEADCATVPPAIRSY

`Cn1cc(C(=O)Nc2ccc(F)cc2-c2ccc(Cl)c(Cl)c2)c(C(F)F)n1` [Bixafen, bixafen]: the half-inhibitory concentration (IC50) was 15.5 µM in test [1] (setting [4]); 5.7 µM in test [2] (setting [5]); not above 1 µM in test [3] (n ≥ 3, listed as bixafen, read-out: IC50 SCCR); 0.34 µM in test [3] (n ≥ 3, read-out: IC50 SCCR).

`Cc1nn(C)c(F)c1C(=O)Nc1ccccc1C(C)CC(C)C` (stereo not drawn) [Penflufen, penflufen]: the IC50 in test [1] (setting [4]) was more than 500 µM; in test [2] (setting [5]), more than 500 µM; in test [3] (n ≥ 3, listed as penflufen, read-out: IC50 SCCR) it was not above 1 µM; in test [3] (n ≥ 3, read-out: IC50 SCCR), 1.3 µM.

Consider `CC(C)Oc1cccc(NC(=O)c2ccccc2C(F)(F)F)c1` [Flutolanil, flutolanil], for which the IC50 in test [1] (setting [4]) was more than 500 µM; in test [2] (setting [6]) it was more than 500 µM; in test [3] (n ≥ 3, read-out: IC50 SCCR), 18.7 µM.

Take `CC(C)CC(C)c1sccc1NC(=O)c1cn(C)nc1C(F)(F)F` (stereo not drawn) [Penthiopyrad, penthiopyrad]: the IC50 in test [1] is 349 µM; in test [2] (setting [6]), 268 µM; in test [3] (IC50 SCCR, n ≥ 3) it was 3.7 µM.

Take `Cn1cc(C(=O)Nc2ccccc2-c2cc(F)c(F)c(F)c2)c(C(F)F)n1` [Fluxapyroxad, fluxapyroxad]: the IC50 in test [1] (setting [4]) is more than 500 µM; in test [2] (setting [5]), 300 µM; in test [3] (n ≥ 3, read-out: IC50 SCCR), 2.1 µM.

Consider `CC(C)C1C2CCC1c1c(NC(=O)c3cn(C)nc3C(F)F)cccc12` (stereo not drawn) [Isopyrazam, isopyrazam], for which the half-maximal inhibitory concentration (IC50) was 125 µM in test [1] (setting [4]); 87 µM in test [2] (setting [5]); not above 1 µM in test [3] (n ≥ 3, listed as isopyrazam, read-out: IC50 SCCR); 0.63 µM in test [3] (n ≥ 3, read-out: IC50 SCCR).

As to `O=C(Nc1ccccc1-c1ccc(Cl)cc1)c1cccnc1Cl` [Boscalid, boscalid], the IC50 in test [1] was more than 500 µM; in test [2] (setting [6]), more than 500 µM; in test [3] (IC50 SCCR, n ≥ 3) it was 4.8 µM.
